Test results from PubChem BioAssay (NCI).
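Method: 48-hour compound exposure of cells in 96-well plates, five concentrations, linear interpolation of endpoints. TGI is the concentration that stops growth completely.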

What was measured:
Test in all cases: NCI-60 cell line screen, 48 h
[1] = tested on: HT29 colon
[2] = tested on: SF-268 CNS
[3] = tested on: 786-0 renal
[4] = tested on: SK-MEL-5 melanoma
[5] = tested on: HCT-116 colon
[6] = tested on: PC-3 prostate
[7] = tested on: UO-31 renal
[8] = tested on: SNB-19 CNS
[9] = tested on: SW-620 colon
[10] = tested on: ACHN renal
[11] = tested on: HS 578T breast
[12] = tested on: LOX IMVI melanoma
[13] = tested on: RXF 393 renal
[14] = tested on: OVCAR-5 ovarian
[15] = tested on: KM12 colon
[16] = tested on: SK-MEL-28 melanoma
[17] = tested on: OVCAR-8 ovarian
[18] = tested on: NCI/ADR-RES ovarian
[19] = tested on: A549 NSCLC
[20] = tested on: A498 renal

Row | SMILES | TGI [1] | TGI [2] | TGI [3] | TGI [4] | TGI [5] | TGI [6] | TGI [7] | TGI [8] | TGI [9] | TGI [10] | TGI [11] | TGI [12] | TGI [13] | TGI [14] | TGI [15] | TGI [16] | TGI [17] | TGI [18] | TGI [19] | TGI [20]
1 | O=c1oc2ccc(Cl)cc2cc1-c1cn2ccccc2n1 | > 50.6 µM | 99.3 µM | 18 µM | > 100 µM | 45.2 µM | > 100 µM | 19.2 µM | > 21 µM | > 100 µM | 8.54 µM | > 100 µM | > 100 µM | > 44.7 µM | > 100 µM | > 100 µM | > 100 µM | > 100 µM | > 77.4 µM | > 89.3 µM | –
2 | O=C(CC(=O)N1N=C(N(c2ccccc2)c2ccccc2)CC1c1ccccc1)Nc1ccc(Cl)cc1 (configuration not stated) | > 100 µM | > 100 µM | > 100 µM | > 100 µM | > 100 µM | > 100 µM | > 100 µM | > 100 µM | > 100 µM | > 100 µM | > 100 µM | – | > 100 µM | > 100 µM | > 100 µM | > 100 µM | > 100 µM | > 100 µM | > 100 µM | –
3 | COc1ccc(N=Nc2c(C)c(C#N)c(=S)n(C3OC(CO)C(O)C(O)C3O)c2C)cc1 (configuration not stated) | > 100 µM | > 100 µM | > 100 µM | 35.1 µM | > 100 µM | > 100 µM | > 100 µM | > 100 µM | > 100 µM | > 100 µM | > 100 µM | > 100 µM | > 100 µM | > 100 µM | > 100 µM | > 100 µM | – | > 100 µM | > 100 µM | –
4 | O=[N+]([O-])/C(C(Cl)=C(Cl)Cl)=C(\Nc1ccccc1)n1nnc2ccccc21 | > 100 µM | 36.3 µM | > 100 µM | – | > 100 µM | > 100 µM | 48.9 µM | > 100 µM | > 100 µM | > 100 µM | 38.7 µM | 31.2 µM | – | > 100 µM | 48 µM | > 100 µM | > 100 µM | > 100 µM | > 100 µM | > 100 µM
5 | COc1cc([C@@]23OC[C@@H]4[C@@H](OC[C@@H]42)c2cc4c(cc23)OCO4)cc(OC)c1OC | > 100 µM | > 100 µM | > 100 µM | – | > 100 µM | > 100 µM | > 100 µM | > 100 µM | > 100 µM | > 100 µM | 10.5 µM | – | > 100 µM | > 100 µM | > 100 µM | > 100 µM | > 100 µM | < 0.01 µM | > 100 µM | 15.1 µM
6 | COC(=O)c1ccccc1/C=C1\Cc2c(C)cc(C)cc2C1=O | > 100 µM | > 100 µM | > 100 µM | > 100 µM | > 100 µM | > 100 µM | > 100 µM | > 100 µM | > 100 µM | > 100 µM | > 100 µM | > 100 µM | > 100 µM | – | > 100 µM | > 100 µM | > 100 µM | – | > 100 µM | > 100 µM
7 | COC(=O)C1=CN(C2CCCCC2)C2(c3ccccc3)c3ccccc3C(=O)OC(=O)C12 (configuration not stated) | > 100 µM | > 100 µM | > 100 µM | > 100 µM | > 100 µM | > 100 µM | > 100 µM | > 100 µM | > 100 µM | > 100 µM | – | > 100 µM | 97.2 µM | > 100 µM | > 100 µM | > 100 µM | > 100 µM | > 100 µM | > 100 µM | > 100 µM
8 | COC(=O)c1c[nH]c2c1-c1cc(C(=O)OCc3ccccc3)n(S(=O)(=O)c3ccc(C)cc3)c1C(=O)C2=O | 0.418 µM | 2.27 µM | 1.02 µM | 0.262 µM | 0.607 µM | 1.19 µM | 1.38 µM | 0.505 µM | 0.576 µM | 0.761 µM | – | 0.375 µM | 1.14 µM | 2.9 µM | 0.89 µM | 0.244 µM | 0.927 µM | 6.01 µM | 1.97 µM | 3.16 µM
9 | Nc1c(N2CCOCC2)c(=O)nc2[nH]/c(=C\c3ccccc3)c(=O)n12 | > 100 µM | > 100 µM | > 100 µM | > 100 µM | > 100 µM | – | > 100 µM | > 100 µM | > 100 µM | > 100 µM | > 100 µM | > 100 µM | > 100 µM | > 100 µM | > 100 µM | > 100 µM | > 100 µM | > 100 µM | > 100 µM | > 100 µM
10 | O=c1c(NO)c([N+](=O)[O-])cnn1-c1ccccc1 | 6.14 µM | 34.2 µM | 12.7 µM | 12.4 µM | 6.25 µM | 2.97 µM | 12.9 µM | 26.1 µM | 3.73 µM | 15.9 µM | 11 µM | 3.66 µM | 12.3 µM | 14 µM | 23.5 µM | 8.87 µM | 7.48 µM | – | 36.2 µM | 50 µM
11 | COC(=O)[C@]1(c2cc3ccccc3[nH]2)CC2CN(CC(=O)N(C)OC)C1CC2(OC)OC (some centres not stated) | > 100 µM | > 100 µM | 57.7 µM | > 100 µM | 70.7 µM | 71.9 µM | > 100 µM | > 100 µM | > 100 µM | > 100 µM | – | > 100 µM | > 100 µM | > 100 µM | > 100 µM | > 100 µM | > 100 µM | > 100 µM | > 100 µM | > 100 µM
12 | O=C(O)CN1CCN(CC(=O)N2CCN(C(=O)OCc3ccccc3)CC2)CCN(CC(=O)O)CCN(CC(=O)N2CCN(C(=O)OCc3ccccc3)CC2)CC1 | > 100 µM | – | > 100 µM | > 100 µM | > 100 µM | > 100 µM | > 100 µM | > 100 µM | > 100 µM | > 100 µM | > 100 µM | > 100 µM | – | > 100 µM | > 100 µM | > 100 µM | > 100 µM | > 100 µM | > 100 µM | > 100 µM
